Among the test systems are CAKI-1; HCT-15; KM12; SW-620; NCI-H23; ACHN; UO-31; LOX IMVI; SK-MEL-28; SNB-19; MDA-N; SNB-75; RXF 393; SF-268; HCT-116; MOLT-4; OVCAR-8; SK-MEL-5; T47D; IGROV-1.
What all share (assay): inhibition of tumour cell growth, NCI panel, 48 h

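Dose response: 5 concentrations. Exposure: 48 h. Format: 96-well plates. Endpoint: linear interpolation; highest concentration if not reached. GI50 marks 50% less growth.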 Active and inactive are the calls of the source. Cut-off read from the data, not from the text of the source: active = GI50 up to about 1.1 µM and inactive = higher.

Regarding `COc1ccc(C(=O)/C=C/c2ccc(O)c(O)c2)c(OC)c1`, the GI50 is 6.27 µM (inactive) in the test with CAKI-1; 0.292 µM in the test with HCT-15; 1.01 µM (active) in the test with KM12; 1.22 µM (inactive) in the test with SW-620; 2.31 µM (inactive) with NCI-H23; 10.9 µM (inactive) in the test on ACHN. In addition, the GI50 was 9.33 µM (inactive) in the test with UO-31; 3.58 µM (inactive) with LOX IMVI; 7.6 µM (inactive) in the test on SK-MEL-28; 2.96 µM (inactive) with SNB-19; 0.454 µM (active) with MDA-N; 1.91 µM (inactive) in the test with SNB-75. Besides, the GI50 with RXF 393 was 8.18 µM (inactive); in the test on SF-268, 1.4 µM (inactive); in the test with HCT-116, 0.638 µM (active); in the test with MOLT-4, 2.79 µM (inactive); in the test with OVCAR-8 it was 10.8 µM (inactive); with SK-MEL-5, 1.85 µM (inactive). The GI50 was 1.55 µM (inactive) with T47D and 0.887 µM (active) with IGROV-1.
`CCOc1cc(NC(C)=O)ccc1C(=O)NN1C(=O)CSC1c1ccc(O)c(OC)c1` (stereo not given): the GI50 in the test with CAKI-1 is 44.4 µM (inactive); in the test on HCT-15 it was 40.8 µM; in the test on KM12, 42.9 µM (inactive); with SW-620, 87.7 µM (inactive); in the test on NCI-H23 it was 61.7 µM (inactive); in the test with ACHN, 51.4 µM (inactive). Further, the GI50 in the test with UO-31 was 10.8 µM (inactive); with LOX IMVI it was 87.3 µM (inactive); with SK-MEL-28, 84.5 µM (inactive); in the test with SNB-19, 89.1 µM (inactive); in the test on MDA-N, 54.7 µM (inactive); in the test on SNB-75, 85.3 µM (inactive). Besides, the GI50 in the test on RXF 393 is 34.7 µM (inactive); in the test on SF-268, 71.4 µM (inactive); with HCT-116 it was 60.1 µM (inactive); with MOLT-4, 23.8 µM (inactive); in the test on OVCAR-8, 23.9 µM (inactive); in the test on SK-MEL-5 it was 52.1 µM (inactive). Moreover, the GI50 with T47D is 32.4 µM (inactive); with IGROV-1, 60.4 µM (inactive).
On to `CC1CC[C@@]2(OC1)OC1C[C@H]3[C@@H]4CC[C@H]5CC(OC6OC(CO)C(O)C(OC7OC(CO)C(OC8OC(CO)C(O)C(OC9OC(CO)C(O)C(O)C9O)C8OC8OC(CO)C(O)C(O)C8O)C(O)C7O)C6O)[C@H](O)CC5(C)[C@H]4CCC3(C)C1[C@@H]2C` (stereo not given in full), for which the GI50 in the test on CAKI-1 is 4.11 µM (inactive); with HCT-15, 9.48 µM; in the test on KM12 it was 4.79 µM (inactive); in the test on SW-620 it was 2.22 µM (inactive); in the test with NCI-H23 it was 5.31 µM (inactive); in the test with ACHN, 1.9 µM (inactive). Moreover, the GI50 in the test on UO-31 is 2 µM (inactive); with LOX IMVI it was 2.29 µM (inactive); in the test on SK-MEL-28, 7.45 µM (inactive); with SNB-19, 2.2 µM (inactive); in the test with MDA-N it was 6.59 µM (inactive); in the test with SNB-75, 3.98 µM (inactive). The GI50 in the test on RXF 393 was 1.34 µM (inactive); with SF-268 it was 5 µM (inactive); in the test on HCT-116, 5.14 µM (inactive); in the test on MOLT-4, 5.18 µM (inactive); in the test on OVCAR-8 it was 1.7 µM (inactive); with SK-MEL-5 it was 6.95 µM (inactive). Further, the figures for the GI50 with T47D and in the test on IGROV-1 were 1.37 µM (inactive) and 1.44 µM (inactive), respectively.
`Clc1nc2c(C#Cc3ccccc3)ncnc2n1C1CCCCO1` (stereo not given): the GI50 was 10 µM (inactive) with CAKI-1; 12.2 µM in the test on HCT-15; 14 µM (inactive) with KM12; 16.3 µM (inactive) in the test with SW-620; 12.9 µM (inactive) with NCI-H23; 16.1 µM (inactive) in the test with ACHN. The GI50 with UO-31 was 11.9 µM (inactive); in the test with LOX IMVI, 12.6 µM (inactive); with SK-MEL-28, 26.5 µM (inactive); in the test with SNB-19 it was 19.6 µM (inactive); in the test on MDA-N, 8.47 µM (inactive); in the test with SNB-75 it was 18.1 µM (inactive). For the same compound, the GI50 in the test on RXF 393 is 10.4 µM (inactive); in the test with SF-268, 14 µM (inactive); in the test on HCT-116 it was 10 µM (inactive); in the test on MOLT-4, 17.7 µM (inactive); in the test with OVCAR-8, 19.9 µM (inactive); with SK-MEL-5, 11.6 µM (inactive). In addition, the GI50 in the test with T47D is 19.1 µM (inactive); in the test on IGROV-1 it was 13.5 µM (inactive).
Regarding `CCOC(=O)COc1ccc2c(C)cc(=O)oc2c1`, the GI50 with CAKI-1 was > 100 µM (inactive); in the test with HCT-15, more than 100 µM; with KM12, > 100 µM (inactive); in the test on SW-620, > 100 µM (inactive); in the test with NCI-H23, > 100 µM (inactive); with ACHN, > 100 µM (inactive). Further, the GI50 in the test with UO-31, in the test on LOX IMVI, with SK-MEL-28, in the test with SNB-19, with MDA-N and in the test on SNB-75 was > 100 µM (inactive) each time. For the same compound, the GI50 in the test on RXF 393, with SF-268, in the test with HCT-116, in the test with MOLT-4, in the test on OVCAR-8 and in the test on SK-MEL-5 was > 100 µM (inactive) in each case. In addition, the GI50 in the test on T47D and with IGROV-1 was > 100 µM (inactive) in each case.
For `C(=N\Nc1ccc(-c2nc3ccccc3[nH]2)cc1)/c1c(-c2ccc(Cc3ccccc3)cc2)[nH]c2ccccc12`, the GI50 in the test with CAKI-1 is 14.3 µM (inactive); in the test on HCT-15 it was 4.07 µM; with KM12 it was 4.37 µM (inactive); in the test on SW-620, 9.98 µM (inactive); with NCI-H23, 8.79 µM (inactive); in the test on ACHN, 11 µM (inactive). Also, the GI50 is 10.8 µM (inactive) with UO-31; 4.05 µM (inactive) in the test with LOX IMVI; 12.9 µM (inactive) in the test on SK-MEL-28; 14.2 µM (inactive) with SNB-19; 2.38 µM (inactive) in the test on MDA-N; 4.47 µM (inactive) with SNB-75. In addition, the GI50 in the test with RXF 393 is 2.29 µM (inactive); with SF-268, 0.925 µM (active); with HCT-116, 5.01 µM (inactive); in the test on MOLT-4, 2.56 µM (inactive); in the test with OVCAR-8 it was 7.91 µM (inactive); with SK-MEL-5 it was 6.41 µM (inactive). The GI50 in the test on T47D is 7.18 µM (inactive); in the test on IGROV-1, 4.41 µM (inactive).
For the compound `O=C1C2CC(Cl)C(SSC3CC4C(=O)N(SC(Cl)(Cl)C(Cl)Cl)C(=O)C4CC3Cl)CC2C(=O)N1SC(Cl)(Cl)C(Cl)Cl` (stereo not given), the GI50 with CAKI-1 was 2.11 µM (inactive); in the test with HCT-15, 1.29 µM; with KM12, 5.04 µM (inactive); in the test on SW-620 it was 1.27 µM (inactive); with NCI-H23, 1.66 µM (inactive); in the test on ACHN it was 2.23 µM (inactive). The GI50 with UO-31 was 1.94 µM (inactive); in the test with LOX IMVI it was 1.34 µM (inactive); in the test with SK-MEL-28 it was 2.15 µM (inactive); in the test with SNB-19, 3.86 µM (inactive); in the test on MDA-N it was 1.7 µM (inactive); in the test on SNB-75, 2.05 µM (inactive). Further, the GI50 is 1.33 µM (inactive) in the test with RXF 393; 1.65 µM (inactive) in the test on SF-268; 2.49 µM (inactive) in the test on HCT-116; 0.192 µM (active) in the test with MOLT-4; 1.45 µM (inactive) with OVCAR-8; 1.97 µM (inactive) in the test on SK-MEL-5. Further, the GI50 in the test on T47D is 2.25 µM (inactive); with IGROV-1, 1.3 µM (inactive).

Values taken from ChEMBL document CHEMBL1201862, “PubChem BioAssay data set” (2004).
